Values quoted from earlier work as cited in patent US11766396B2, “Kit and method for dyeing keratinous material by means of aminosilicone and a chromophoric compound” (Henkel AG & Co. KGaA, priority 2019, dated 2023).

Key:
[1] = 25° C.
[2] = 5% solution in water

pH value of solution in water [2]	Compound	solubility in water [1]
–	Nc1cc(S(=O)(=O)[O-])cc2cc(S(=O)(=O)[O-])c(N=Nc3ccccc3)c(O)c12.[Na+].[Na+] [Acid Red 33, diantrium salt of 5-amino-4-hydroxy-3-(phenylazo)-naphthalene-2,7-disulphonate]	2500 µg/mL
–	O=S(=O)([O-])c1ccc(N=Nc2c(O)ccc3ccccc23)cc1.[Na+] [Acid Orange 7, sodium salt of 4-[(2-hydroxy-1-naphthyl)azo]benzene sulphonate]	more than 7 g/L
–	O=C([O-])C1=NN(c2ccc(S(=O)(=O)[O-])cc2)C(=O)C1N=Nc1ccc(S(=O)(=O)[O-])cc1.[Na+].[Na+].[Na+] (centres unmarked) [Acid Yellow 23, trisodium salt of 4,5-dihydro-5-oxo-1-(4-sulfophenyl)-4-((4-sulfophenyl)azo)-1H-pyrazole-3-carboxylic acid]	highly soluble
–	O=C([O-])c1c(Cl)c(Cl)c(Cl)c(Cl)c1-c1c2c(Br)cc(=O)c(Br)c-2oc2c(Br)c(O)cc(Br)c12.O=C([O-])c1c(Cl)c(Cl)c(Cl)c(Cl)c1-c1c2c(Br)cc(=O)c(Br)c-2oc2c(Br)c(O)cc(Br)c12.[Na+].[Na+] [Acid Red 92, disodium salt of 3,4,5,6-tetrachloro-2-(1,4,5,8-tetrabromo-6-hydroxy-3-oxoxanthen-9-yl)benzoic acid]	greater than 10 g/L
4.4	O=P([O-])(O)O.[K+] [Potassium dihydrogen phosphate]	–
